Results taken from article PMC10223284, “Category-Based Toxicokinetic Evaluations of Data-Poor Per- and Polyfluoroalkyl Substances (PFAS) using Gas Chromatography Coupled with Mass Spectrometry” (Toxics, 2023).
“And” between values parts separate entries of the source, which are not always exact repeats. Identical values can stand only once. Like-named read-outs stand apart in the source and are kept apart here.

Experiments:
in vitro [1] = conditions: both, human, plasma
human plasma [2] = conditions: for Fup.Med / Fup.point: both, human, 5 h, 10 μM
human plasma [3] = conditions: for PPB_Stab_Fail: plasma
[4] = Abiotic loss in negative controls of the hepatocyte clearance assay (cell-free media, metabolically inactivated hepatocytes); format: in vitro ADME; conditions: for Hep_Stab_Fail: 120 min
In short: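 Test compound at 1 μM incubated at 37 °C with shaking in complete William's medium E, either cell-free or with metabolically inactivated hepatocytes, then quenched with ice-cold acetonitrile for quantitative analysis.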

human plasma [5] = conditions: cited from earlier work
human plasma [6] = assay: Ultracentrifugation (UC) plasma protein binding assay, fraction unbound in plasma (fup); conditions: for Mean fu: fraction unbound in human plasma, used for IVIVE
[7] = test system: pooled human cryopreserved primary hepatocyte suspensions; conditions: cited from earlier work
[8] = In vitro-in vivo extrapolation (IVIVE) to Css and administered equivalent dose (AED); set-up: species or system human; conditions: for Clhep: IVIVE, hepatocyte Clint scaled to whole-liver clearance; for AED: administered equivalent dose from LOEC and Css; for Fub: fub=fup/(B:P), Fub set to 1 if needed; for CLint: scaled with HPGL 110 mill cells/g, Vl 1596 g
In short: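 Measured plasma protein binding (fup) and hepatocyte Clint served as IVIVE inputs to estimate human steady-state plasma concentration (Css). fup was converted to blood unbound fraction using blood:plasma partitioning, and Clint was scaled to whole-liver clearance (L/h). AEDs were derived by combining Css with published in vitro lowest-observed effective concentrations.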

human primary cells = conditions: cited from earlier work
in vitro [9] = conditions: both, human, plasma; remark: listed apart in the source
[10] = test system: pooled human cryopreserved primary hepatocyte suspensions; assay: Hepatic metabolic stability (hepatocyte clearance) assay, substrate depletion; format: in vitro ADME
In short: (§1)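 Pooled 50-donor human cryopreserved hepatocytes (50,000 cells/100 μL) incubated with 1 μM compound at 37 °C with shaking. Parent loss quantified against internal standards over time to T240 in triplicate; T½ and Clint (μL/min/million cells) from ln concentration vs time, corrected for abiotic loss in cell-free and inactivated-hepatocyte controls.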

[11] = as above; format: in vitro ADME, human; conditions: both sexes, human
In short: as §1

[12] = Ultracentrifugation (UC) plasma protein binding assay, fraction unbound in plasma (fup); conditions: both, human, plasma
human plasma [13] = assay: Chemical stability in plasma over the UC assay time course (T5hr/T1hr)
[14] = legacy PFAS included for comparison
[15] = Assuming 1 mg/kg/day dose rate, BW 70 kg
[16] = human steady-state plasma concentration, assuming 1 mg/kg/day dosage
[17] = BioSeek lowest-observed effect concentration used for AED
[18] = minimum lowest-observed effect concentration, BioSeek platform

Structure (SMILES): C=CC(=O)OCC(F)(F)C(F)F [2,2,3,3-Tetrafluoropropyl acrylate]
- remaining at 5 h, 10 μM (in vitro [1]): 0%
- Uncertain (human plasma [2]): Y
- Fup.Med (human plasma [2]): 1.93E-08
- Fup.point (human plasma [2]): 0.234
- Unstable (human plasma [3]): Y
- Fstable.Med (human plasma [3]; both, human, 5 h, 10 μM): 0.000712
- PPB_Stab_Fail (human plasma [3]; both, human, 5 h, 10 μM): 1
- Hep_Stab_Fail ([4]; both, human, 1 μM): 1

Structure (SMILES): O=S(=O)([O-])C(F)(F)C(F)(F)C(F)(F)C(F)(F)C(F)(F)C(F)(F)C(F)(F)C(F)(F)F.[K+] [Potassium perfluorooctanesulfonate, reference compound]
- fup (human plasma [5]; [14]): 0.0040
- Mean fu (human plasma [6]): 0.004
- In Vitro Clint [7, 14]: 1.81 μL/min/10^6 cells
- Css [8, 15]: 15.71 mg/L and 31.41 uM
- Clhep [8]: 0.138 L/h
- AED [8]: 0.2229 mg/kg/day
- Fub [8]: 0.007273
- Css [8, 16]: 31.41 µM
- CLint [8]: 317764 µL/min
- LOEC (human primary cells; [17]): 7.00 µM
- LOEC (human primary cells; [18]): 7 µM

Structure (SMILES): N.O=C(O)C(F)(F)C(F)(F)C(F)(F)C(F)(F)C(F)(F)C(F)(F)C(F)(F)F [Ammonium perfluorooctanoate (PFOA), Ammonium perfluorooctanoate, reference compound]
- fup (human plasma [5]; [14]): 0.0006
- Mean fu (human plasma [6]): 0.0006
- In Vitro Clint [7, 14]: 0.27 μL/min/10^6 cells
- Css [8, 15]: 282.38 mg/L and 681.96 uM
- Clhep [8]: 0.003 L/h
- AED [8]: 0.0029 mg/kg/day
- Fub [8]: 0.001091
- Css [8, 16]: 681.96 µM
- Css ([8]; human steady-state plasma concentration, assuming 1 mg/kg/day dosage, listed as PFOA): 682 µM
- CLint [8]: 47401.2 µL/min
- LOEC (human primary cells; [17]): 2.00 µM
- LOEC (human primary cells; [18]): 2 µM

Structure (SMILES): OCC(F)(F)OC(F)(F)C(F)(F)OC(F)(F)C(F)(F)OC(F)(F)CO [1H,1H,11H,11H-Perfluorotetraethylene glycol]
- Css [8, 15]: 0.61 mg/L and 1.50 uM
- Clhep [8]: 4.634 L/h
- AED [8]: 1.3364 mg/kg/day
- Fub [8]: 0.02327
- Css [8, 16]: 1.50 µM
- CLint [8]: 3498911 µL/min
- fraction unbound at 5 h, 10 μM (in vitro [9]; Fraction Unbound (fu), replicates A, B, C): 0.0147
- fraction unbound at 5 h, 10 μM (in vitro [9]; Mean Fu): 0.013
- fraction unbound at 5 h, 10 μM (in vitro [9]; Mean fu): 0.0128
- LOEC (human primary cells; [17]): 2.00 µM
- LOEC (human primary cells; [18]): 2 µM
- Concentration (nM), Time 240 min ([10]; both, human, 240 min, 1 μM): 88.3883 nM
- Linear Regression Results, Best-Fit Values, Slope ([10]; hepatocyte time course): -0.01215
- half-life at 1 μM ([11]; hepatocytes): 0.951 h
- hepatocyte CLint at 1 μM ([11]; hepatocytes, Bkgd-Sub Clearance (µL/min/106 hepatocytes)): 19.9 µL/min/1e6 cells
- hepatocyte CLint at 1 μM ([11]; hepatocytes, In Vitro Clint): 19.9 µL/min/1e6 cells
- hepatocyte CLint at 1 μM ([11]; hepatocytes, Linear Regression Results, Best-Fit Values, Clearance): 24.3 µL/min/1e6 cells
- hepatocyte CLint at 1 μM ([11]; hepatocytes, Unadj Clint): 24.3 µL/min/1e6 cells
- hepatocyte CLint at 1 μM ([11]; hepatocytes, Unadj in vitro Clint): 24.3 µL/min/1e6 cells
- hepatocyte CLint at 1 μM ([11]; hepatocytes, clearance rate in hepatocytes): 20 µL/min/1e6 cells
- hepatocyte CLint at 1 μM ([11]; s9, Clint.1.Med): 5.23 µL/min/1e6 cells
- Fup.Med (human plasma [2]): 0.0115
- Fup.point (human plasma [2]): 0.0127
- Fstable.Med (human plasma [3]; both, human, 5 h, 10 μM): 0.989
- Mean Stability (human plasma [3]; both, human, 5 h, 10 μM): 1.051
- Stability (T5hr/ T1hr), Run-specific Avg (human plasma [3]; both, human, 5 h, 10 μM): 0.998
- PPB_Stab_Fail (human plasma [3]; both, human, 5 h, 10 μM): 0
- No Cells BkgdCl, Clearance ([4]; 1 μM): 4.374
- half-life at 1 μM ([4]; both sexes, human, hepatocytes): 4.08 h
- HT BkgdCl, Clearance ([4]; both, human, 1 μM): 5.666
- Hep_Stab_Fail ([4]; both, human, 1 μM): 0
- half-life at 1 μM ([4]; buffer): 5.28 h
- HT BkgdCl, Slope ([4]; heat treated hepatocytes control, 0 vs 240 min): -0.002833
- No Cells BkgdCl, Slope ([4]; no cells control, 0 vs 240 min): -0.002187

Structure (SMILES): Cc1ccc([N+](=O)[O-])cc1 [4-Nitrotoluene, 4-nitrotoluene, reference compound]
- Fup.Med (human plasma [6]; median fraction unbound in plasma, UC assay Level4): 0.0679
- Fup.point (human plasma [6]; point estimate of fraction unbound in plasma, UC assay Level4): 0.0612
- Fraction Unbound (fu), Run-specific Avg (human plasma [6]; run-specific average): 0.0534 and 0.08
- fraction unbound at 5 h, 10 μM ([12]; Fraction Unbound (fu), Run-specific Avg, run-specific average): 0.06
- fraction unbound at 5 h, 10 μM ([12]; Mean Fu (fraction unbound), mean over all UC runs and replicates, human plasma): 0.0581
- Mean Stability (T5hr/T1hr) (human plasma [13]; mean over all UC runs and replicates, human plasma): 0.816
- Fstable.Med (human plasma [13]; median fraction stable in plasma, UC assay Level4): 0.779
- Stability (T5hr/ T1hr), Run-specific Avg (human plasma [13]; run-specific average): 0.82 and 0.84 and 0.81 and 0.78

Structure (SMILES): NS(=O)(=O)C(F)(F)C(F)(F)C(F)(F)C(F)(F)C(F)(F)C(F)(F)C(F)(F)C(F)(F)F [Perfluorooctanesulfonamide, reference compound]
- fup (human plasma [5]): 0.0039
- In Vitro Clint [7]: 11.93 μL/min/10^6 cells
- Css [8, 15]: 3.16 mg/L and 6.33 uM
- Clhep [8]: 0.882 L/h
- AED [8]: 0.3157 mg/kg/day
- Fub [8]: 0.007091
- Css [8, 16]: 6.33 µM
- CLint [8]: 2094431 µL/min
- fraction unbound at 5 h, 10 μM (in vitro [9]; Mean fu): 0.0039
- LOEC (human primary cells; [17]): 2.00 µM
- LOEC (human primary cells; [18]): 2 µM
- hepatocyte CLint at 1 μM ([11]; hepatocytes, in vitro CLint): 11.9 µL/min/1e6 cells

Structure (SMILES): FC(F)(F)C(F)(C(F)(F)F)C(F)(F)C(F)(F)CC1CO1 (stereo not shown) [3-(Perfluoro-3-methylbutyl)-1,2-propenoxide]
- remaining at 5 h, 10 μM (in vitro [1]): 0%
- PPB_Stab_Fail (human plasma [3]; both, human, 5 h, 10 μM): 1
- Hep_Stab_Fail ([4]; both, human, 1 μM): 1
